# In patent publication US8420817B2, “Tricyclic N-heteroaryl-carboxamide derivatives, preparation and therapeutic use thereof” (Sanofi, priority 2007, dated 2013):
# Legend:
# TRPV1 receptors = biological target: T1, TRPV1 receptors (Mus musculus, UniProt Q704Y3); assay: Pain induced by intraplantar administration of capsaicin in mice; assay type: in vivo; conditions: 30 mg/kg orally 120 minutes before intraplantar capsaicin, n=10
# T1 construct: from tissue; host or cells: living mice, hind paw (in vivo behavioural test)
# T1 sequence (Q704Y3 whole entry): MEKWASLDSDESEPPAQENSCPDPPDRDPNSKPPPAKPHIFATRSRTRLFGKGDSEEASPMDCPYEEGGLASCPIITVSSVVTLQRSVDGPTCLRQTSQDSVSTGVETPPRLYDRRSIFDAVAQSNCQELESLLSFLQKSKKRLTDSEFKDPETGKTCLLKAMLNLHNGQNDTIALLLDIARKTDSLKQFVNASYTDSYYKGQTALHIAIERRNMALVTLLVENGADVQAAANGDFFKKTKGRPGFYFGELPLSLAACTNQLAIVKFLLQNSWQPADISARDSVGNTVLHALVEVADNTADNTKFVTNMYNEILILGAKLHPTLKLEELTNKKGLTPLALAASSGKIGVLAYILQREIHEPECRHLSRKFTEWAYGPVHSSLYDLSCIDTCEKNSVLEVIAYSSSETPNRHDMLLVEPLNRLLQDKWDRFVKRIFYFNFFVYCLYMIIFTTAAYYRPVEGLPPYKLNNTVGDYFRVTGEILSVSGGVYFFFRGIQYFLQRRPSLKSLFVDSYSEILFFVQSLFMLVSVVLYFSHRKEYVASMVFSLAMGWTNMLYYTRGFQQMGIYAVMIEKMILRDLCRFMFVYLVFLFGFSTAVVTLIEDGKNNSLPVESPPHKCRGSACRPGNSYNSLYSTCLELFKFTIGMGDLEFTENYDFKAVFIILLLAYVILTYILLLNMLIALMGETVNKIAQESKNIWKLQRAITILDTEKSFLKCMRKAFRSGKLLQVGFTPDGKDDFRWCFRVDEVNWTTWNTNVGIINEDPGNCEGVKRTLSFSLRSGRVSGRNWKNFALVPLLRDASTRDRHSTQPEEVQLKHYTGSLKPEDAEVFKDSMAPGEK
# Experimental: Pain Induced by Intraplantar Administration of Capsaicin in Mice
# The intraplantar injection of capsaicin in mice rapidly produces a short-duration nociceptif behavior which is manifested in instances of licking, chewing and flexing of the treated paw. These nociceptive responses are probably linked to activation of the local TRPV1 receptors by the capsaicin.
# (E)-capsaicin is initially diluted at 3 mg/ml in DMSO, then diluted again, for its final use, at 1.5 μg/20 μl in physiological saline. Administration of solvent has no effect at all on the behavior of the mouse. The capsaicin is injected into one of the hind paws of the animal, at the level of the upper face.
# The compounds to be tested are administered orally 120 minutes prior to injection of capsaicin. […] The nociceptif behavior of the animals is then immediately evaluated by the person carrying out the experiment, and the duration of the behavioral manifestations induced by the capsaicin is recorded with a stop watch for a time of 2 minutes (licking and chewing, total or partial flexing of the injected paw).
# For each compound an inhibition is determined which corresponds to the mean of the nociceptive responses induced by the capsaicin in response to a dose of test product (expressed in mg/kg) administered orally, on a sample of a specific number of mice (n).
# TRPV1 receptor = biological target: T2, TRPV1 receptor (Rattus norvegicus, UniProt O35433); assay: Inhibition of the current induced by capsaicin on rat DRGs (whole-cell patch-clamp); assay type: cell-based; conditions: DRG neuron; compound at 10 nM; inhibition of the control capsaicin response; rat DRG neurons
# T2 construct: The neurons of the DRG naturally express the TRPV1 receptor; endogenous in cells; host or cells: primary culture of newborn rat dorsal root ganglion neurons
# T2 sequence (O35433 whole entry): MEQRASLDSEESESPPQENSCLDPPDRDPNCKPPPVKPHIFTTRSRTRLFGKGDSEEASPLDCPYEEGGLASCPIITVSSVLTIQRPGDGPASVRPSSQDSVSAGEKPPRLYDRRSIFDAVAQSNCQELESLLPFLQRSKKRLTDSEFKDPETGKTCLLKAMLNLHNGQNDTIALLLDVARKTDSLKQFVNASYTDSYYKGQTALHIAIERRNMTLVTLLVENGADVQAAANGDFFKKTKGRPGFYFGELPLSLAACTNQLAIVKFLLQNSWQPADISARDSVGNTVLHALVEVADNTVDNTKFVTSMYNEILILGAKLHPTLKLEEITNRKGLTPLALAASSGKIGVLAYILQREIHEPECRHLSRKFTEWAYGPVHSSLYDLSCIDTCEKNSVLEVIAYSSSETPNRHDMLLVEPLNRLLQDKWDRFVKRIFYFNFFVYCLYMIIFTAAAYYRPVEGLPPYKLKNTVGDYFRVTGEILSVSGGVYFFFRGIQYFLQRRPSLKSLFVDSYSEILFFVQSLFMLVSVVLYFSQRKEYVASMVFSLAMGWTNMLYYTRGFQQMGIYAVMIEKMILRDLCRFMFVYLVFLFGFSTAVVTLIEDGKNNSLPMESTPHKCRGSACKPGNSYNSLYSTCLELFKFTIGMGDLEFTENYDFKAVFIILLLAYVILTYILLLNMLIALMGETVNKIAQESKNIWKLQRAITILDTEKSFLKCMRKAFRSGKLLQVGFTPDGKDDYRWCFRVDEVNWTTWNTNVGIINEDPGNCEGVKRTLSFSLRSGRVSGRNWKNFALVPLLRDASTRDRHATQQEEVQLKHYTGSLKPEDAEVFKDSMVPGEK
# Experimental: Test for Inhibition of the Current Induced by Capsaicin on Rat DRGs
# • Primary culture of rat dorsal root ganglion (DRG) cells:
# The neurons of the DRG naturally express the TRPV1 receptor.
# Newborn rat DRG primary cultures are prepared from 1-day-old rat pups. Briefly, after dissection, the ganglia are trypsinized and the cells are mechanically dissociated by controlled trituration. The cells are resuspended in an Eagle's basal culture medium containing 10% of fetal calf serum, 25 mM KCl, 2 mM glutamine, 100 μg/ml gentamicin and 50 ng/ml of NGF, and then deposited onto laminin-coated glass cover slips (0.25×10^6 cells per cover slip) which are then placed in 12-well Corning dishes. The cells are incubated at 37° C. in a humidified atmosphere containing 5% CO2 and 95% air. […]
# The measuring chambers (volume 800 μl) containing the cell preparation are placed on the platform of an inverted microscope (Olympus IMT2) equipped with Hoffman optics (Modulation Contrast, New York), and observed at the magnification of 400×. […] The overall currents (membrane potential fixed at −60 mV) are recorded with an Axopatch 1D amplifier (Axon Instruments, Foster City, Calif.), connected to a PC controlled by Pclamp8 software (Axon Instruments). The current traces are recorded on paper and simultaneously digitized (sampling frequency 15 to […]) and acquired on the hard drive of the PC. […]
% inhibition of nociceptive responses induced by capsaicin (TRPV1 receptors),melting point [°C],SMILES,inhibition at 0.01 µM (TRPV1 receptor) [%]
63% (+/−11%),254 to 255,"O=C(Nc1cnc2c(c1)nc1n2CCC1O)c1cc2cc(C(F)(F)F)ccc2n1Cc1cccc(F)c1 (racemic) [Compound 29, N-(6-Hydroxy-7,8-dihydro-6H-pyrrolo[2′,1′:2,3]imidazo[4,5-b]pyridin-3-yl)-5-trifluoromethyl-1-(3-fluorobenzyl)-1H-indole-2-carboxamide]",–
–,247 to 249,"O=C(Nc1cnc2c(c1)nc1n2CCC1)c1cc2cc(C(F)(F)F)cnc2n1Cc1cccc(F)c1 [Compound 24, N-(7,8-Dihydro-6H-pyrrolo[2′,1′:2,3]imidazo[4,5-b]pyridin-3-yl)-5-trifluoromethyl-1-(3-fluorobenzyl)-1H-pyrrolo[2,3-b]pyridine-2-carboxamide]",–
–,267 to 268,"O=C(Nc1cnc2c(c1)nc1n2CCC1O)c1cc2cc(C(F)(F)F)ccc2n1Cc1cccc(F)c1 (centres unmarked) [Compound 26, N-(6-Hydroxy-7,8-dihydro-6H-pyrrolo[2′,1′:2,3]imidazo[4,5-b]pyridin-3-yl)-5-trifluoromethyl-1-(3-fluorobenzyl)-1H-indole-2-carboxamide]",–
–,262 to 263,"O=C(Nc1cnc2c(c1)nc1n2CCCC1)c1cc2cc(C(F)(F)F)ccc2n1Cc1cccc(F)c1 [Compound 27, N-(6,7,8,9-Tetrahydroimidazo[1,2-a:5,4-b′]dipyridin-3-yl)-5-trifluoromethyl-1-(3-fluorobenzyl)-1H-indole-2-carboxamide]",–
–,212 to 213,"CC1(C)CCn2c1nc1cc(NC(=O)c3cc4cc(C(F)(F)F)ccc4n3Cc3cccc(F)c3)cnc12 [Compound 31, N-(6,6-Dimethyl-7,8-dihydro-6H-pyrrolo[2′,1′:2,3]imidazo[4,5-b]pyridin-3-yl)-5-trifluoromethyl-1-(3-fluorobenzyl)-1H-indole-2-carboxamide]",–

SMILES,% inhibition of nociceptive responses induced by capsaicin (TRPV1 receptors),melting point [°C],inhibition at 0.01 µM (TRPV1 receptor) [%]
"O=C(Nc1cnc2c(c1)nc1n2CCC1)c1cc2cc(F)ccc2n1Cc1cccc(F)c1 [Compound 1, N-(7,8-Dihydro-6H-pyrrolo[2′,1′:2,3]imidazo[4,5-b]pyridin-3-yl)-5-fluoro-1-(3-fluorobenzyl)-1H-indole-2-carboxamide]",–,227 to 229,69
